Test results from patent US20250082656A1, “DOSAGE REGIMENS FOR TREATMENT OF DENGUE INFECTION” (Atea Pharmaceuticals, Inc., priority 2022, published 2025).

How the values were obtained:
[1] = tested on: human induced pluripotent stem cell (iPS) cardiomyocytes; experiment: Cardiomyocyte cytotoxicity assay (CellTiter Glo); conditions: iPS cardiomyocytes, 3 days
DENV4 NS5 [2] = target: T1, DENV4 NS5 (Dengue virus type 4, UniProt P09866); experiment: Nucleotide analogue incorporation / discrimination assay, DENV4 NS5; assay type: biochemical; conditions: GTP for AT-9010 and AT-9002, UTP for SOF-TP
Experimental: (§1) The chain-terminating efficiency of Compound 5 was measured in competitive nucleotide incorporation assays using all four DENV serotypes. […] In comparison, sofosbuvir triphosphate is incorporated into the RNA less than 1 time for every 100 UTP (native uridine triphosphate) incorporations.
The nature of regular inserted Watson-Crick nucleotides is indicated in the right of the gel. […] Quantification of band-products greater in size than the G/AT (+5) band relative to the G/AT (+5) band were measured using a Typhoon FluorImager, and allowed to calculate the discrimination value. The incorporation rates for […] and AT9002 are compared to that of GTP, and to that of UTP in the case of SOF-TP.
(§2) Measurements and quantitations were as in FIG. 19B.
(§3) DENV NS5 was pre-incubated with the annealed P10/T20 RNA in an assembly buffer containing 20 mM HEPES pH 7.5, 10% glycerol, 5 mM MgCl2, and 5 mM DTT for 10 min at 30° C. to create an active RNA elongation complex.
(§4) Reactions were started by adding AT-9010 with either all four NTPs or UTP, ATP, and CTP only.
(§5) Single nucleotide incorporation was tested as follows. Reactions were started by adding the corresponding NTP or analogue. Final concentrations were 1 μM NS5, 0.25 μM P10/T20, 100 μM NTP or analogue in a final buffer containing 20 mM HEPES pH 7.5, 15% glycerol, 5 mM MgCl2, and 5 mM DTT.
(§6) Reactions were quenched at the designated time points in 3× volume FBD stop solution (formamide, 10 mM EDTA) and analyzed on 20% acrylamide-bisacrylamide (19:1) […] sequencing gels. RNA products were visualized using a Typhoon FluorImager then analyzed and quantified using ImageQuant software.

DENV3 NS5 [3] = target: T2, DENV3 NS5 (Dengue virus type 3, UniProt Q6YMS4); experiment: Nucleotide analogue incorporation / discrimination assay, DENV3 NS5; assay type: biochemical; conditions: GTP for AT-9010 and AT-9002, UTP for SOF-TP
Experimental: as §1, §2, §3, §4, §5, §6

DENV1 NS5 [4] = target: T3, DENV1 NS5 (Dengue virus type 1, UniProt P17763); experiment: Nucleotide analogue incorporation / discrimination assay, DENV1 NS5; assay type: biochemical; conditions: GTP for AT-9010 and AT-9002, UTP for SOF-TP
Experimental: as §1, §2, §3, §4, §5, §6

DENV2 NS5 [5] = target: T4, DENV2 NS5 (Dengue virus type 2, UniProt P14340); experiment: Nucleotide analogue incorporation / discrimination assay, DENV2 NS5; assay type: biochemical; conditions: DENV2; GTP for AT-9010 and AT-9002, UTP for SOF-TP
Experimental: as §1
The experimental procedure is provided in Example 10.
as §2
DENV NS5 was preincubated with the annealed P10/T20 RNA in an assembly buffer containing 20 mM HEPES pH 7.5, 10% glycerol, 5 mM MgCl2 and 5 mM DTT for 10 min at 30° C. to create an active RNA elongation complex. Reactions were started by adding AT-9010 with either all four NTPs, or UTP, ATP and CTP only. […] Reactions were quenched at indicated timepoints in 2× volume FBD stop solution (formamide, 10 mM EDTA) and analysed on 20% acrylamide:bisacrylamide (19:1), […] sequencing gels. RNA products were visualized using a Typhoon FluorImager and analyzed using ImageQuant software.
as §3, §4, §5, §6

[6] = tested on: NS5 RNA dependent RNA polymerase (RdRp); experiment: Competitive nucleotide incorporation assays, all four DENV serotypes (summary); assay type: biochemical, Dengue virus; conditions: versus native uridine triphosphate
Experimental: As described in Example 10 and shown in FIG. 1, the active metabolite of Compound 2 or Compound 1 (Compound 5) acts as a GTP analog and is incorporated into RNA by the NS5 RNA dependent RNA polymerase (RdRp), immediately terminating synthesis.
as §1

DENV3 MTase domain = DENV3 MTase domain (Dengue virus type 3, UniProt Q6YMS4); experiment: Thermal shift assay, DENV3 MTase domain; conditions: read-out: ΔTM
DENV3 NS5 [7] = target: T2, DENV3 NS5; experiment: Thermal shift assay, DENV3 NS5; conditions: read-out: ΔTM
DENV1 MTase domain = DENV1 MTase domain (Dengue virus type 1, UniProt P17763); experiment: Thermal shift assay, DENV1 MTase domain; conditions: read-out: ΔTM
DENV2 RdRp domain = DENV2 RdRp domain (Dengue virus type 2, UniProt P14340); experiment: Thermal shift assay, DENV2 RdRp domain; conditions: read-out: ΔTM
DENV4 RdRp domain = experiment: Thermal shift assay, DENV4 RdRp domain; conditions: RdRp domain DENV4, 100 μM compound
DENV1 RdRp domain = experiment: Thermal shift assay, DENV1 RdRp domain; conditions: RdRp domain DENV1, 100 μM compound
DENV4 MTase domain = DENV4 MTase domain (Dengue virus type 4, UniProt P09866); experiment: Thermal shift assay, DENV4 MTase domain; conditions: read-out: ΔTM
DENV3 RdRp domain = experiment: Thermal shift assay, DENV3 RdRp domain; conditions: RdRp domain DENV3, 100 μM compound
DENV2 NS5 [8] = target: T4, DENV2 NS5; experiment: Thermal shift assay, DENV2 NS5; conditions: read-out: ΔTM
DENV2 MTase domain = DENV2 MTase domain (Dengue virus type 2, UniProt P14340); experiment: Thermal shift assay, DENV2 MTase domain; conditions: read-out: ΔTM
DENV1 NS5 [9] = target: T3, DENV1 NS5; experiment: Thermal shift assay, DENV1 NS5; conditions: read-out: ΔTM
DENV4 NS5 [10] = target: T1, DENV4 NS5; experiment: Thermal shift assay, DENV4 NS5; conditions: read-out: ΔTM
[11] = tested on: granulocyte macrophage (GM) human bone marrow progenitor cells; experiment: Bone marrow progenitor cell assay, granulocyte macrophage (GM); conditions: GM cell assay, 14 days, colonies counted
[12] = tested on: erythroid (E) human bone marrow progenitor cells; experiment: Bone marrow progenitor cell assay, erythroid (E); conditions: E cell assay, 14 days, colonies counted

T3 sequence (P17763 2494-3392): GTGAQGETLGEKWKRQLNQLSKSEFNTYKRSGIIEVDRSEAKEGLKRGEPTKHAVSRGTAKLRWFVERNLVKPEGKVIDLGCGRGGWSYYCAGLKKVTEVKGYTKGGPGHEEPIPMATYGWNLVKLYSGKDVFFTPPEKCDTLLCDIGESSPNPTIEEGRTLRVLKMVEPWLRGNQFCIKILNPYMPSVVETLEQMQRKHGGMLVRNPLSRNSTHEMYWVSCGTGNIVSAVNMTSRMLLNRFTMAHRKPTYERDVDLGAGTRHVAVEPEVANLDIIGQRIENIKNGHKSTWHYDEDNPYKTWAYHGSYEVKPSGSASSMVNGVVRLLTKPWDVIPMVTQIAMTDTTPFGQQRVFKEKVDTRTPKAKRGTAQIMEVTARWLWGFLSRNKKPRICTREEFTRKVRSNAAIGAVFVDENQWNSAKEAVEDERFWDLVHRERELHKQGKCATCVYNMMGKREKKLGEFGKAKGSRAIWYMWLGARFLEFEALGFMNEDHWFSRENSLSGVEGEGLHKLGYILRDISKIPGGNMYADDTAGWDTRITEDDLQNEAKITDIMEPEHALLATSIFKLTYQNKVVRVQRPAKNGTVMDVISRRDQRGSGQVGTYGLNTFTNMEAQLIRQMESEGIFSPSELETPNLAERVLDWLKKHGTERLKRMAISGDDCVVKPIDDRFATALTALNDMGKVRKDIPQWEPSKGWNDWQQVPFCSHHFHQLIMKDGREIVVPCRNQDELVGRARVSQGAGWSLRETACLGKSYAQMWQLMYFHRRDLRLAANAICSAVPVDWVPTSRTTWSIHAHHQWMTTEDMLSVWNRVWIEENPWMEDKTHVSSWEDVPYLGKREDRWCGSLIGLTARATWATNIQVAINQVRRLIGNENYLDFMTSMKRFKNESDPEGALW
T2 sequence (Q6YMS4 2491-3390): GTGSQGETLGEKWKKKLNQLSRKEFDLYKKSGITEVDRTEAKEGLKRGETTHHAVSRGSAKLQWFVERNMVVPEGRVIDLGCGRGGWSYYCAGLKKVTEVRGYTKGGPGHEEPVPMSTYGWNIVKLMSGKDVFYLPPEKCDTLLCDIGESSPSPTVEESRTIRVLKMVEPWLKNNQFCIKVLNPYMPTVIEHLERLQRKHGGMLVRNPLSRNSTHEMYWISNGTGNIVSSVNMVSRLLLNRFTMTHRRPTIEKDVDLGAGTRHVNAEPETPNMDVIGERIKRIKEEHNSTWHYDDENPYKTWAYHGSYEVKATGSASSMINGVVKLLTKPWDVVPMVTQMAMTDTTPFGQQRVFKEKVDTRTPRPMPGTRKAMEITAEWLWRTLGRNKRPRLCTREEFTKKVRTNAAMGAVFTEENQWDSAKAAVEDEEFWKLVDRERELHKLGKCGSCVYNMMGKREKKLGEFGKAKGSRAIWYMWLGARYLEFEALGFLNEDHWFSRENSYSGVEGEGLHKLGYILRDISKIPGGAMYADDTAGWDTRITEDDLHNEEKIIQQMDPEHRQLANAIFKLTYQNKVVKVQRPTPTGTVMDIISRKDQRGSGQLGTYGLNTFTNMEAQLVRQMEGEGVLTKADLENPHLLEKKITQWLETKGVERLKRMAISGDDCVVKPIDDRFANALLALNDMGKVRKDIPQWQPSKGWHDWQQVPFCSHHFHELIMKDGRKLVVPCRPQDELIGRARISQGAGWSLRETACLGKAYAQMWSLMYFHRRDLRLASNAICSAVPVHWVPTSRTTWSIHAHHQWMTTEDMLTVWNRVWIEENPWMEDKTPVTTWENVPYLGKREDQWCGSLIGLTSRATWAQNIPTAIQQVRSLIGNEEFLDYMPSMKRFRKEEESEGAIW
T1 sequence (P09866 2488-3387): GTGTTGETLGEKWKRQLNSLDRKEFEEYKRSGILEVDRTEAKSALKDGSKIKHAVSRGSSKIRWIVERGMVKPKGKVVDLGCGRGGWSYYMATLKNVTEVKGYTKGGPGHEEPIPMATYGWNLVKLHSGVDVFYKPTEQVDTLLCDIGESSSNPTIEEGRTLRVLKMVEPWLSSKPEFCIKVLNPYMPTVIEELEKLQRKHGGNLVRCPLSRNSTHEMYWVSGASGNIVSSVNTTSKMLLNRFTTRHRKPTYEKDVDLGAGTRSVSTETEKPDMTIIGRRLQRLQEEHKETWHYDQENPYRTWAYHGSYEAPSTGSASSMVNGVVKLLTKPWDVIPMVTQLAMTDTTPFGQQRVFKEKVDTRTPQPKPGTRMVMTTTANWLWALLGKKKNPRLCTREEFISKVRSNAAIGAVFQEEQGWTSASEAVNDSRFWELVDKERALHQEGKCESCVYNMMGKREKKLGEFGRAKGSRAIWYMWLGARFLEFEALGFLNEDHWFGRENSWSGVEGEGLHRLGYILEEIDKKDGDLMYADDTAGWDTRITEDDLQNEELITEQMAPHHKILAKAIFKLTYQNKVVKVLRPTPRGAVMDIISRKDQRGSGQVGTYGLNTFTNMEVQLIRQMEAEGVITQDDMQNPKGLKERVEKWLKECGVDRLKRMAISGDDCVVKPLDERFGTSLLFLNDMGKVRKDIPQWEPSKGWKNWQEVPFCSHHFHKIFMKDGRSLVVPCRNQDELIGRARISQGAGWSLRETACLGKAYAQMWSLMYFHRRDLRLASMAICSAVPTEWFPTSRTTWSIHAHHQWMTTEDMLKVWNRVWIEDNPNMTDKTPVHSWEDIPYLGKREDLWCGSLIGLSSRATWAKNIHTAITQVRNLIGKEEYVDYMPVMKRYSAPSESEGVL
Sequence of DENV3 MTase domain (Q6YMS4 2492-2753): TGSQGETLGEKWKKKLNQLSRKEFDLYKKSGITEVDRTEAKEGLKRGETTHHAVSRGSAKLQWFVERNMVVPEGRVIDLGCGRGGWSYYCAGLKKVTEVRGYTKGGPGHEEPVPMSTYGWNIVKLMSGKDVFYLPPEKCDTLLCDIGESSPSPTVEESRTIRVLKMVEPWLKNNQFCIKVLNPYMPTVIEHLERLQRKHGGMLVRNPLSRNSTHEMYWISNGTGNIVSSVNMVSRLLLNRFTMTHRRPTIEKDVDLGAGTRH
Sequence of DENV1 MTase domain (P17763 2495-2756): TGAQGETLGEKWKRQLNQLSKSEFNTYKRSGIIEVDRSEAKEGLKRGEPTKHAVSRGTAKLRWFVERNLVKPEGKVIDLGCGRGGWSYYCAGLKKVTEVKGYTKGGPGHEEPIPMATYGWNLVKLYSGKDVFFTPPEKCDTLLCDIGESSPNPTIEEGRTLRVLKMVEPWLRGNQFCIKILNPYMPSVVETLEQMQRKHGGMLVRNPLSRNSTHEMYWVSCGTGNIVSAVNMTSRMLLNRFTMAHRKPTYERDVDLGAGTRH
Sequence of DENV4 MTase domain (P09866 2489-2751): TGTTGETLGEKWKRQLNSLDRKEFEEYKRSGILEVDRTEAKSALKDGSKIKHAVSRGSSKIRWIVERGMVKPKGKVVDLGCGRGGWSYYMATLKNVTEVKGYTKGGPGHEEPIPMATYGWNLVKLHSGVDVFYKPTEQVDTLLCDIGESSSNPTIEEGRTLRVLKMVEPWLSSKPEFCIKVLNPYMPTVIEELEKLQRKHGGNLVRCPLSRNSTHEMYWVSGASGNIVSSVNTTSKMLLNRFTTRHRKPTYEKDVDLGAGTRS

Row | Compound | Preference (discrimination) native nucleotide > analogue (DENV4 NS5 [2]) | Preference (discrimination) native nucleotide > analogue (DENV3 NS5 [3]) | Preference (discrimination) native nucleotide > analogue (DENV1 NS5 [4]) | Preference (discrimination) native nucleotide > analogue (DENV2 NS5 [5]) | ΔTm at 100 µM (DENV3 MTase domain) [°C] | ΔTm at 100 µM (DENV3 NS5 [7]) [°C] | ΔTm at 100 µM (DENV1 MTase domain) [°C] | ΔTm at 100 µM (DENV2 RdRp domain) [°C] | ΔTm at 100 µM (DENV4 MTase domain) [°C] | ΔTm at 100 µM (DENV2 NS5 [8]) [°C] | ΔTm at 100 µM (DENV2 MTase domain) [°C] | ΔTm at 100 µM (DENV1 NS5 [9]) [°C] | ΔTm at 100 µM (DENV4 NS5 [10]) [°C] | also measured
1 | COc1cc2nc(N3CCN(C(=O)C4COc5ccccc5O4)CC3)nc(N)c2cc1OC (stereo not drawn) [doxazosin, reference compound] | – | – | – | – | – | – | – | – | – | – | – | – | – | CC50 [1]: 7 µM
2 | C[C@@]1(O)[C@H](O)[C@@H](COP(=O)(O)OP(=O)(O)OP(=O)(O)O)O[C@H]1n1cnc2c(=O)[nH]c(N)nc21 [AT-9002, 2′-methylguanosine triphosphate] | 41.5 ± 7.3 | 17.5 ± 1.5 | 19.4 ± 2.8 | 18.2 ± 0.2 | – | – | – | – | – | – | – | – | – | –
3 | sofosbuvir triphosphate [SOF-TP] | >100 | >100 | >100 | >100 | – | – | – | – | – | – | – | – | – | incorporations into the RNA for every 100 UTP incorporations [6]: less than 1
4 | Nc1nc2c(ncn2[C@@H]2O[C@H](COP(=O)(O)OP(=O)(O)OP(=O)(O)O)[C@@H](O)[C@H]2O)c(=O)[nH]1 [GTP, guanosine triphosphate] | – | – | – | – | 4.1 ± 0.1 | 4.8 ± 0.1 | 4.9 ± 0.1 | 2.4 ± 0.1 | 4 ± 0.1 | 5.7 ± 0.1 | 5.7 ± 0.1 | 5.8 ± 0.1 | 3.9 ± 0.1 | ΔTM (DENV4 RdRp domain): 3.3 ± 0.1 °C; ΔTM (DENV1 RdRp domain): 4.5±0.2 °C; ΔTM (DENV3 RdRp domain): 2.2 ± 0.1 °C
5 | Cc1cn([C@H]2C[C@H](N=[N+]=[N-])[C@@H](CO)O2)c(=O)[nH]c1=O [AZT, reference compound] | – | – | – | – | – | – | – | – | – | – | – | – | – | CC50 [11]: 2000 nM; CC50 [12]: 3000 nM
6 | Nc1ncnc2c1ncn2[C@@H]1O[C@H](C[C@@H](N)CC[C@H](N)C(=O)O)[C@@H](O)[C@H]1O [Sinefungin, sinefungin] | – | – | – | – | 2.1 ± 0.1 | 1.8 ± 0.1 | 1.9 ± 0.1 | -0.8 ± 0.1 | 2.8 ± 0.1 | 1.4 ± 0.1 | 2.9 ± 0.1 | 1.2 ± 0.1 | 1.4 ± 0.1 | –
